Experimental data reported in US10100282B2, “Differentiation of pluripotent cells” (FUJIFILM Cellular Dynamics, Inc., priority 2009, dated 2018).

System: hESCs
Assay: Cytokine matrix: serum-free EB hematopoietic differentiation, surface markers by flow cytometry
Format: cell-based, human
Protocol: Cells were collected from each well/condition and washed once with media. The cell pellet was digested using TrypLE™ or 0.5% trypsin for 5-10 minutes in a 37° C. incubator followed by washes with media and passage through a 70-μm cell strainer. […] Non-viable cells were excluded with 7-aminoactinomycin D (7-AAD, BD Biosciences). Live cell analysis was performed on a FACSCalibur™ or Accuri flow cytometer and Cell Quest software. hESCs adapted to feeder free growth on matrigel maintained using mTESR were preconditioned for three days in the presence of X-vivo-15 containing 0.1 ng/ml TGF-β and 20 ng/ml FGF-2. Cells were harvested using TrypLE for 6 minutes at 37 C. TrypLE™ was neutralized using EB basal media containing 1 μM ROCK inhibitor (H-1152), Soybean trypsin inhibitor (0.25 mg/ml). The cells were washed once in EB basal media containing 1 μM ROCK inhibitor and soybean trypsin inhibitor (0.25 mg/ml). The cells were plated in low attachment plates in EB basal media containing 1 μM ROCK inhibitor and soybean trypsin inhibitor (0.25 mg/ml). The media was changed the next day to EB basal media containing different cytokine formulations. […] The cytokine combinations used are listed below in Table 3. The EB cultures were half fed with fresh differentiation media every two days. The EB cultures were harvested on day 8, 12 and 17 of differentiation. The EB cultures were harvested by spinning down all the cells and digesting the EBs with TrypLE™ or 0.5% trypsin. The phenotype of the progenitor cell types was analyzed by flow cytometry and the cells were plated in methylcellulose media for CFU assays. “FLT3” refers to the Flt3 ligand below.

Substance | CD31 expressing cells (DAY 8, factor ABSENT) [%] | CD34 expressing cells (DAY 8, factor ABSENT) [%] | CD43 expressing cells (DAY 8, factor ABSENT) [%] | CD45 expressing cells (DAY 8, factor ABSENT) [%] | FLK-1 expressing cells (DAY 8, factor ABSENT) [%] | CD31 expressing cells (DAY 8, factor PRESENT) [%] | CD34 expressing cells (DAY 8, factor PRESENT) [%] | CD43 expressing cells (DAY 8, factor PRESENT) [%] | CD45 expressing cells (DAY 8, factor PRESENT) [%] | FLK-1 expressing cells (DAY 8, factor PRESENT) [%] | CD31 expressing cells (DAY 12, factor ABSENT) [%] | CD34 expressing cells (DAY 12, factor ABSENT) [%] | CD43 expressing cells (DAY 12, factor ABSENT) [%] | CD45 expressing cells (DAY 12, factor ABSENT) [%] | FLK-1 expressing cells (DAY 12, factor ABSENT) [%] | CD31 expressing cells (DAY 12, factor PRESENT) [%] | CD34 expressing cells (DAY 12, factor PRESENT) [%] | CD43 expressing cells (DAY 12, factor PRESENT) [%] | CD45 expressing cells (DAY 12, factor PRESENT) [%] | FLK-1 expressing cells (DAY 12, factor PRESENT) [%] | further results
IL6: Interleukin-6, a pro-inflammatory cytokine | 0.8 | 0.9 | 0.8 | 0.2 | 1.2 | 0.8 | 1.4 | 1.0 | 0.2 | 2.6 | 1.4 | 1.7 | 1.2 | 1.5 | 0.5 | 2.5 | 2.6 | 3.2 | 2.4 | 0.5 | CD31 expressing cells (DAY 17, factor ABSENT): 3.8%; CD34 expressing cells (DAY 17, factor ABSENT): 1.8%; CD43 expressing cells (DAY 17, factor ABSENT): 4.1%; CD45 expressing cells (DAY 17, factor ABSENT): 4.1%; FLK-1 expressing cells (DAY 17, factor ABSENT): 1.1%; CD31 expressing cells (DAY 17, factor PRESENT): 9.4%; CD34 expressing cells (DAY 17, factor PRESENT): 3.0%; CD43 expressing cells (DAY 17, factor PRESENT): 9.9%; CD45 expressing cells (DAY 17, factor PRESENT): 9.6%; FLK-1 expressing cells (DAY 17, factor PRESENT): 2.5%
GMCSF: Granulocyte-macrophage colony-stimulating factor | 0.4 | 1.0 | 0.3 | 0.2 | 2.2 | 1.1 | 1.3 | 1.4 | 0.2 | 1.7 | 1.5 | 1.0 | 1.4 | 1.3 | 0.6 | 2.4 | 2.4 | 3.0 | 2.6 | 0.4 | CD31 expressing cells (DAY 17, factor ABSENT): 1.6%; CD34 expressing cells (DAY 17, factor ABSENT): 2.1%; CD43 expressing cells (DAY 17, factor ABSENT): 1.4%; CD45 expressing cells (DAY 17, factor ABSENT): 0.9%; FLK-1 expressing cells (DAY 17, factor ABSENT): 1.4%; CD31 expressing cells (DAY 17, factor PRESENT): 11.3%; CD34 expressing cells (DAY 17, factor PRESENT): 2.8%; CD43 expressing cells (DAY 17, factor PRESENT): 12.1%; CD45 expressing cells (DAY 17, factor PRESENT): 12.3%; FLK-1 expressing cells (DAY 17, factor PRESENT): 2.3%; role during EB differentiation (serum free hematopoietic differentiation, days 8, 12, 17): play a role during later stages of EB differentiation
SCF: Stem cell factor, a cytokine which binds CD117 (c-Kit) | 0.7 | 0.8 | 0.8 | 0.2 | 1.9 | 0.9 | 1.5 | 1.0 | 0.2 | 2.0 | 1.3 | 1.7 | 1.2 | 1.5 | 0.3 | 2.6 | 2.6 | 3.2 | 2.4 | 0.6 | CD31 expressing cells (DAY 17, factor ABSENT): 3.9%; CD34 expressing cells (DAY 17, factor ABSENT): 2.3%; CD43 expressing cells (DAY 17, factor ABSENT): 4.1%; CD45 expressing cells (DAY 17, factor ABSENT): 4.0%; FLK-1 expressing cells (DAY 17, factor ABSENT): 1.4%; CD31 expressing cells (DAY 17, factor PRESENT): 9.3%; CD34 expressing cells (DAY 17, factor PRESENT): 2.6%; CD43 expressing cells (DAY 17, factor PRESENT): 9.8%; CD45 expressing cells (DAY 17, factor PRESENT): 9.6%; FLK-1 expressing cells (DAY 17, factor PRESENT): 2.2%
EPO: Erythropoietin | 0.8 | 1.2 | 1.0 | 0.2 | 2.2 | 0.7 | 1.1 | 0.8 | 0.2 | 1.7 | 2.2 | 2.4 | 2.1 | 2.6 | 0.8 | 1.8 | 2.0 | 2.4 | 1.5 | 0.2 | CD31 expressing cells (DAY 17, factor ABSENT): 4.6%; CD34 expressing cells (DAY 17, factor ABSENT): 2.5%; CD43 expressing cells (DAY 17, factor ABSENT): 5.0%; CD45 expressing cells (DAY 17, factor ABSENT): 4.8%; FLK-1 expressing cells (DAY 17, factor ABSENT): 1.6%; CD31 expressing cells (DAY 17, factor PRESENT): 8.8%; CD34 expressing cells (DAY 17, factor PRESENT): 2.4%; CD43 expressing cells (DAY 17, factor PRESENT): 9.1%; CD45 expressing cells (DAY 17, factor PRESENT): 8.9%; FLK-1 expressing cells (DAY 17, factor PRESENT): 2.1%
TPO: Thrombopoietin, a glycoprotein hormone | 0.8 | 1.0 | 1.0 | 0.2 | 1.9 | 0.8 | 1.3 | 0.8 | 0.2 | 1.9 | 2.3 | 2.2 | 2.2 | 2.6 | 0.7 | 1.7 | 2.2 | 2.3 | 1.5 | 0.3 | CD31 expressing cells (DAY 17, factor ABSENT): 4.8%; CD34 expressing cells (DAY 17, factor ABSENT): 2.5%; CD43 expressing cells (DAY 17, factor ABSENT): 4.8%; CD45 expressing cells (DAY 17, factor ABSENT): 4.9%; FLK-1 expressing cells (DAY 17, factor ABSENT): 1.7%; CD31 expressing cells (DAY 17, factor PRESENT): 8.6%; CD34 expressing cells (DAY 17, factor PRESENT): 2.4%; CD43 expressing cells (DAY 17, factor PRESENT): 9.2%; CD45 expressing cells (DAY 17, factor PRESENT): 8.8%; FLK-1 expressing cells (DAY 17, factor PRESENT): 2.0%
